Test results published in PMC9022420 (Scientific Reports, 2022).

Experiments:
[1] = Singlet oxygen quantum yield determination; format: physicochemical; conditions: in MeCN; for φΔ singlet oxygen quantum yield: calculated using Ru(bpy)3^2+ as the reference
[2] = system: murine hepatitis virus A59 strain (MHV-A59); experiment: Photodynamic inactivation of MHV-A59 (TCID50 assay in 17Cl-1 cells); format: cell-based
Method: The efficacy of the flavins were enumerated utilizing modified methods from ISO 18,184 and Leibowitz et al.[56] […] 100 µM working stock solutions were then created by diluting each DMSO solution into PBS. To control for the effect of DMSO on MHV-A59, DMSO was diluted into PBS at the same concentration. A white light apparatus was set up to cover a 4 × 5 (row x column) area of a 96-well plate with the same level of light intensity (1 × 10^5 lx). The stock solutions were then diluted in replicates of four to a total of 180 µl in PBS at 1, 5, and 10 µM concentrations for each sample. Virus stocks of MHV-A59 were thawed on ice prior to use. 20 µl of MHV-A59 stock (1.4 × 10^9 PFU/ml) was then mixed into each well, and the 4 × 5 well matrix was treated with the light or incubated in the dark at room temperature for a specified time (5, 10, or 15 min).
After treatment, the samples were mixed into 320 µl of Gibco Difco™ Beef Extract (1.5% w/v beef extract in ddH2O; Life Technologies) and rolled for 15 min to chelate any free ions in the solution. The samples then were serially diluted (10^0–10^–7) in infectivity media (Dulbecco’s modified Eagle’s medium low glucose 1 g/L (DMEM, Life Technologies) supplemented with 2.5% fetal bovine serum (Merck), 3% tryptose phosphate broth (Merck), 1 × non-essential amino acids (Gibco), 1 × antibiotic–antimycotic (Thermo Fisher Scientific) and 1 × L-Glutamine (Gibco]) and added in triplicate to 17Cl-1 cell plates. For each sample or control there were 4 replicate treatments (in light or dark); each treatment replicate was plated in triplicate. Infected 17Cl-1 plates were incubated at 37 °C in a 5% CO2 atmosphere for 24 h. Plates were scored for cytopathic effect (CPE) by microscopy and viral titres were determined by the Reed and Muench 50% tissue culture infectious dose (TCID50) end point method. Outliers were removed from the four replicates using an outlier test. The full protocol was repeated in triplicate on different days to account for any variability in the assay.

[3] = system: pDNA (pUC18); experiment: pDNA photocleavage, agarose gel electrophoresis; format: biochemical; conditions: 10 µM flavin, 15 min white LED, PBS 0.1% DMSO
Method: A 20 µL aliquot was taken after 15 min of white LED irradiation (1 × 10^5 lx). Prior to loading, 2 µL of 6X Orange-G loading dye in glycerol were added to the aliquot and mixed vigorously. The gel was electrophoresed at 80 V for 35 min with 1% agarose gels in 1X Tris–acetate-EDTA (TAE) buffer. Gels were then imaged in a Syngene G:BOX Gel Documentation System and band % quantification was performed using ImageJ Gel Analyzer.

[4] = 5 µM flavin, 10 min irradiation
[5] = 10 µM flavin, 10 min irradiation
[6] = 1 µM flavin, 10 min irradiation (21.0 J/cm^2)

Row | SMILES | φΔ singlet oxygen quantum yield [1] | MHV-A59 log10 reduction in viral titre [2, 4] [log10] | MHV-A59 log10 reduction in viral titre ([2]; 10 µM flavin, 5 min irradiation (10.5 J/cm^2)) [log10] | MHV-A59 log10 reduction in viral titre [2, 5] [log10] | MHV-A59 log10 reduction in viral titre ([2]; 10 µM flavin, 15 min irradiation (31.5 J/cm^2)) [log10] | ФΔ singlet oxygen quantum yield [1] [%] | % NC (nicked coiled pDNA after photocleavage) [3] [%] | MHV-A59 log10 reduction in viral titre [2, 6] [log10] | MHV-A59 viral load reduction [2, 4] [%] | viral inactivation, log10 reduction ([2]; 15 min irradiation at 1 μM) [log10]
1 | CCCCCCCCn1c(=O)nc2n(CCN)c3cc(C)c(C)cc3nc-2c1=O [Flavin F1] | 0.49 ± 0.12 | 1.7 | 1.2 | 2.1 | 2.2 |  |  |  |  | 
2 | CCCCCCCCn1c(=O)nc2n(CCNC(=N)N)c3cc(C)c(C)cc3nc-2c1=O [Flavin F2] | 0.55 ± 0.10 | 3.9 |  | 3.8 |  | 55 | 39 | 2.1 | > 99.9 | 
3 | CCCCCCCCn1c(=O)nc2n(CCN)c3cc(Br)c(Br)cc3nc-2c1=O [Flavin F3] | 0.85 ± 0.09 | 4.1 |  | 4.8 |  | 85 |  | 2.1 | > 99.99 | 
4 | CCCCCCCCn1c(=O)nc2n(CCNC(=N)N)c3cc(Br)c(Br)cc3nc-2c1=O [Flavin F4] | 0.62 ± 0.10 |  |  |  |  | 62 | 21 | 3.4 | > 99.99 | > 3
